Here are results for twelve compounds from US6815460B2, “Process for preparing prodrugs of benzenesulfonamide-containing cox-2 inhibitors” (Pharmacia Corporation, priority 1996, dated 2004).

Where a name gives a salt, the structure may show the parent alone.

Data set [1] deals with Male Sprague-Dawley rats. The experiment in a line: Rat Carrageenan-induced Analgesia Test. The data set is classed as in vivo. To be noted: dosed orally, inhibition of hyperalgesic foot withdrawal, three hours after carrageenan. As to the method: Rat Carrageenan-induced Analgesia Test
The rat carrageenan analgesia test was performed with materials, reagents and procedures essentially as described by Hargreaves, et al., (Pain, 32, 77 (1988)). Male Sprague-Dawley rats were treated as previously described for the Carrageenan Foot Pad Edema test. Three hours after the injection of the carrageenan, the rats were placed in a special plexiglass container with a transparent floor having a high intensity lamp as a radiant heat source, positionable under the floor. After an initial twenty minute period, thermal stimulation was begun on either the injected foot or on the contralateral uninjected foot. A photoelectric cell turned off the lamp and timer when light was interrupted by paw withdrawal. The time until the rat withdraws its foot was then measured. The withdrawal latency in seconds was determined for the control and drug-treated groups, and percent inhibition of the hyperalgesic foot withdrawal determined.

Data set [2] concerns Male Sprague-Dawley rats. As to the kind of experiment: Rat Carrageenan Foot Pad Edema Test. The data set is classed as in vivo. Particulars: dosed orally one hour before carrageenan, foot volume three hours after carrageenan. As to the method:
Rat Carrageenan Foot Pad Edema Test
The carrageenan foot edema test was performed with materials, reagents and procedures essentially as described by Winter, et al., (Proc. Soc. Exp. Biol. Med., 111, 544 (1962)). Male Sprague-Dawley rats were selected in each group so that the average body weight was as close as possible. Rats were fasted with free access to water for over sixteen hours prior to the test. The rats were dosed orally (1 mL) with compounds suspended in vehicle containing 0.5% methylcellulose and 0.025% surfactant, or with vehicle alone. One hour later a subplantar injection of 0.1 mL of 1% solution of carrageenan/sterile 0.9% saline was administered and the volume of the injected foot was measured with a displacement plethysmometer connected to a pressure transducer with a digital indicator. Three hours after the injection of the carrageenan, the volume of the foot was again measured. The average foot swelling in a group of drug-treated animals was compared with that of a group of placebo-treated animals and the percentage inhibition of edema was determined (Otterness and Bliven, Laboratory Models for Testing NSAIDs, in Non-steroidal Anti-Inflammatory Drugs, (J. Lombardino, ed. 1985)).
For orientation: In the carrageenan paw model, swelling and tenderness develop within hours.

Data set [3] is described as follows: In vitro conversion of prodrugs by S9 liver fractions. To be noted: purified S9 fractions (3 mg/ml), compound 10 ug/ml, 37° C., pH 7.2, 90 minutes, HPLC. In kind it is in vitro ADME. The protocol:
IN VITRO CONVERSION OF PRODRUGS
The conversion of the prodrugs by S9 liver fractions was determined by the following method. The S9 liver-fraction suspension (IIAM) was thawed and the suspension was stirred by vortex. The suspension was mixed with 12M urea at 1:7, v:v, (yielding […] final concentration) and further stirred by vortex. The S9 suspension solution was partially purified by solid phase extraction (Vac-Elut apparatus:C18 columns (Varian #1210-2001)) eluting with acetonitrile. The fractions were mixed by vortex and concentrated to dryness under nitrogen (no heat). The fractions were resuspended in 100 μl acetonitrile:phosphate buffer (8.3 mM, pH 7.2) (20:80).
The compounds were dissolved in water (0.2 ml, 10 ug/ml) and incubated at 37° C. (pH 7.2, 90 minutes) with purified S9 fractions (0.2 ml, 3 mg/ml). Conversion of the prodrug to the active COX-2 inhibitor was followed by HPLC (Beckmann System Gold, Novapak C18 column (3.9×150 mm), acetonitrile:phosphate buffer (8.3 mM, pH 7.2) (20:80-40:60), UV detection 240 nm). Quantitation of the conversion of the prodrug was determined by measurement of integrated HPLC peak area.

For orientation: melting point means the temperature of the solid-liquid transition. `CC(=O)NS(=O)(=O)c1ccc(-c2c(-c3cccc(F)c3)noc2C)cc1` [Example 13, N-[[4-[3-(3-Fluorophenyl)-5-methylisoxazol-4-yl]phenyl]sulfonyl]acetamide]: the melting point was in the range of 144 to 145 °C. In addition, in the data set on Male Sprague-Dawley rats [1], the “ANALGESIA % Inhibition @ 10 mg/kg body weight” value is 61.5%. Besides, the “RAT PAW EDEMA % Inhibition @ 30 mg/kg body weight” value in the data set on Male Sprague-Dawley rats [2] was found to be 58%. Turning to `CCCC(=O)NS(=O)(=O)c1ccc(-c2c(-c3ccccc3)noc2C)cc1` [Example 25, N-[[4-(5-Methyl-3-phenylisoxazol-4-yl)phenyl]sulfonyl]butanamide, Sodium Salt], the “ANALGESIA % Inhibition @ 10 mg/kg body weight” value with Male Sprague-Dawley rats [1] is listed as 33%. The “RAT PAW EDEMA % Inhibition @ 30 mg/kg body weight” value in the data set with Male Sprague-Dawley rats [2] is on record as 60%. In addition, the “Metabolism of Prodrugs: Parent (% remaining)” value (“Metabolism … (% remaining)” for short) in data set [3] is on record as 0.8%. With `CCC(=O)NS(=O)(=O)c1ccc(-c2c(-c3ccccc3)noc2C)cc1` [Example 18, N-[[4-(5-Methyl-3-phenylisoxazol-4-yl]phenyl]sulfonyl]propanamide, Sodium Salt], in data set [3], the “Metabolism … (% remaining)” value is 3.3%. For the compound `CC(=O)NS(=O)(=O)c1ccc(-c2c(-c3ccccc3)noc2COC(C)=O)cc1` [Example 73, N-[[4-[5-Acetoxymethyl-3-phenylisoxaxzol-4-yl]phenyl]sulfonyl]acetamide], the melting point was 137 to 139 °C. Same read-out and setting: for `CC(=O)NS(=O)(=O)c1ccc(-c2c(-c3ccccc3)noc2C)cc1` [Example 39, N-[[4-[5-Methyl-3-phenylisoxazol-4-yl]phenyl]sulfonyl]acetamide] the value was 169.3 to 170.6 °C. `CC(=O)NCC(=O)NS(=O)(=O)c1ccc(-c2c(-c3ccccc3)noc2C)cc1` [Example 82, 2-(Acetylamino)-N-[[4-(5-methyl-3-phenylisoxazol-4-yl)phenyl]sulfonyl]acetamide] showed a melting point of 218.2 to 219.3 °C. Same read-out and setting: in the case of `CCCCC(=O)NS(=O)(=O)c1ccc(-c2c(-c3ccccc3)noc2C)cc1` [Example 26, N-[[4-(5-Methyl-3-phenylisoxazol-4-yl)phenyl]sulfonyl]pentanamide] it was 134.1 to 136.5 °C; in that of `COC(=O)C(=O)NS(=O)(=O)c1ccc(-c2c(-c3ccccc3)noc2C)cc1` [Example 50, Methyl [[[4-(5-methyl-3-phenylisoxazol-4-yl)phenyl]sulfonyl]amino]oxoacetate], 171.1 to 172.3 °C. The compound `COc1ccc2c(c1F)CSc1c(C(F)(F)F)nn(-c3ccc(S(=O)(=O)NC(C)=O)cc3)c1-2.[Na]` gave a melting point of 183 to 191.1 °C. On the same count and under the same terms, for `CNS(=O)(=O)c1ccc(-n2cccc2-c2ccc(F)cc2)cc1` [Example 78, 4-[2-(4-Fluorophenyl)-1H-pyrrol-1-yl]-N-methylbenzenesulfonamide] the value was 174 °C. For `CC(=O)NS(=O)(=O)c1ccc(-c2c(-c3cccc(F)c3)noc2C)cc1` [Example 14, N-[[4-[3-(3-Fluorophenyl)-5-methylisoxazol-4-yl]phenyl]sulfonyl]acetamide, Sodium Salt], the “ANALGESIA % Inhibition @ 10 mg/kg body weight” value in the data set with Male Sprague-Dawley rats [1] (Sodium Salt) is 41%. Also, the “RAT PAW EDEMA % Inhibition @ 30 mg/kg body weight” value in the data set with Male Sprague-Dawley rats [2] (Sodium Salt) was 65%. Moreover, the “Metabolism … (% remaining)” value in data set [3] was determined as 63.4%. In turn, `CC(=O)NS(=O)(=O)c1ccc(-c2oc(C)nc2-c2ccccc2)cc1` (as salt: sodium) [Example 49, N-[[4-(2-Methyl-4-phenyloxazol-5-yl)phenyl]sulfonyl]acetamide, Sodium Salt] displayed a melting point of 259.9 to 260 °C.
